Measured values from the supplement of paper PMC10307832.

Compound: Nc1nc2[nH]cc(CCc3ccc(C(=O)N[C@@H](CCC(=O)O)C(=O)O)cc3)c2c(=O)[nH]1 [Pemetrexed]
Test: relative viability (nuclei count vs DMSO), 5 days (fraction); higher = more cells survive
Summary of the method: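 Acceptance criteria were a control CV below 25% and at least one doubling per plate. Lung cancer cell lines in 1536-well plates got five library-drug doses (not always all listed) √10 apart by pinning and were left 5 days with no medium change. Viability divides treated-well nuclei by vehicle-well nuclei and is the median across plates. Nuclei were counted by MetaXpress from 4× Hoechst images.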

Cell Line	relative viability (0.002 µM)	relative viability (0.006325 µM)	relative viability (0.02 µM)	relative viability (0.06325 µM)	relative viability (0.2 µM)	relative viability (0.2 µM, anchor plate)
NCI-H1651	0.951	0.91	1.04	0.95	0.945	0.616
NCI-H1648	0.992	0.924	0.888	0.783	0.931	0.77
NCI-H1355	0.787	0.962	0.999	1.05	1	1.04
LC-2-ad	0.815	0.974	0.967	0.296	0.3	0.285
NCI-H1944	0.716	0.99	1.04	0.956	0.969	0.619
HCC-827	0.908	1.09	1.05	1.02	–	–
COR-L23	0.998	0.979	1.04	0.375	0.211	0.2
NCI-H3122	1.01	0.953	1.02	0.951	0.576	0.201
NCI-H2170	0.952	0.928	1.04	1.01	–	–
NCI-H1793	0.909	0.807	0.986	0.987	0.93	0.923
BEN	0.964	1	1.06	0.947	0.769	0.829
NCI-H1623	0.899	1.04	0.976	0.912	0.955	–
NCI-H647	0.734	1.01	1.04	0.883	0.289	0.182
PC-14	0.975	1.01	1.08	0.602	0.142	0.136
HCC-78	0.674	0.98	0.877	0.43	–	–
NCI-H1666	1.05	1.02	0.999	1.02	0.796	0.834
COR-L 105	0.947	0.896	1.14	0.883	0.978	1.12
LU99A	0.869	0.92	1.07	1.08	–	–
NCI-H596	0.996	0.909	0.942	0.732	0.436	0.499
201T	1.01	0.998	1.04	0.996	0.91	0.323
HCC-15	0.823	0.948	1.09	0.978	0.402	0.227
